# Data as given in US5091187A, “Phospholipid-coated microcrystals: injectable formulations of water-insoluble drugs” (priority 1991, dated 1992).
# Structures can show the parent of a compound that is named as a salt.
# Tests used:
# [1] = pKa and oil/water partition of indomethacin; assay type: physicochemical
# injected muscle = assay: IM injection of albendazole sulfoxide preparations in rats; assay type: in vivo, rat; settings: versus albendazole
# Method: The above experimentation was repeated with albendazole sulfoxide, a more water-soluble analogue of the drug. […] Solubility data for albendazole sulfoxide are: 0.42 mg/ml in water, 17.7 mg/ml in propylene glycol and 179.0 mg/ml in ethanol. […] Both preparations normally settled to albendazole sulfoxide concentrations of 20% (w/v). Samples (0.1 ml) of both preparations were injected IM in rats (n=6) and the muscles were examined at necropsy, 2 days post-injection. […] Propylene glycol, which has two OH groups and a dielectric constant of 32, is an example of a polar organic compound which can be substituted for water.
# surgical wounds = settings: crystals sprinkled into surgical wounds; cited from earlier work
# human skin = assay: Pin prick anesthesia after intradermal injection, human self-experimentation; settings: in vivo
# Method: The Inventor carried out self-experimentation with Preparation B. I made two intradermal injections of 0.15 ml of Preparation B into the skin of my calf, right leg, inside, at sites 12 cm and 22 cm below the knee. The injections raised weals approx. 1.1 cm in diameter. […] The weals subsided within ca. 30 sec. The injected sites were tested for pin prick and cold stimulus anesthesia for the next 24 hr.
# As a control for the above, I injected myself with 0.15 ml volumes of solutions of 1%, 2% and 5% tetracaine-H-Cl. In attempt to make the concentrated solutions less damaging, the pH was adjusted from 5.3 to 6.5. Physiological tonicity was maintained by including glucose (4.3%, 3.2% and 0%, respectively). […] The 1% and 2% tetracaine-H-Cl solutions produced only mild erthrema, with return to normal color when the anesthesia subsided. […] The presented anesthesia values were taken at its periphery. […] This poor outcome with the 5% (w/v) tetracaine solution is in stark contrast to the excellent results obtained with the 20% (w/v) tetracaine-H-I microcrystal.
# [2] = water
# [3] = IV injection; cited from earlier work
compound,measurement,setting,value
O=C1CN(/N=C/c2ccc(-c3ccc([N+](=O)[O-])cc3)o2)C(O)=N1 [Dantrolene],dissolution in organic solvents,"Solubility; 7.9 mg in mineral oil, n-dibutyl ether, methoxyflurane",did not dissolve
COc1ccc2c(c1)c(CC(=O)O)c(C)n2C(=O)c1ccc(Cl)cc1 [Indomethacin],oil/water partition coefficient,[1]; olive oil/water,55/1
same,oil/water partition coefficient,[1]; pentanol/water,85/1
same,solubility,Solubility; pH 9.6,30000 µg/mL
same,solubility,"Solubility; water, pH 7, water",376 µg/mL
"CN(C)[C@@H]1C(=O)C(C(N)=O)=C(O)[C@@]2(O)C(=O)C3=C(O)c4c(O)cccc4[C@@](C)(O)[C@H]3[C@H](O)[C@@H]12 [OTC, oxytetracycline]",solubility,"physchem; water, aqueous solubility",~1000 µg/mL
CCC[S+]([O-])c1ccc2[nH]c(NC(=O)OC)nc2c1 (stereo not shown) [albendazole sulfoxide],solubility,"physchem; ethanol, organic solvent or mixture, solubility, in ethanol",179000 µg/mL
same,solubility,"physchem; propylene glycol, organic solvent or mixture, solubility, in propylene glycol",17700 µg/mL
same,solubility,"physchem; water, aqueous solubility",420 µg/mL
same,rate of absorption into the blood,injected muscle,Faster rates of absorption into the blood
CCCSc1ccc2nc(NC(=O)OC)[nH]c2c1 [albendazole],solubility,"physchem; water, aqueous solubility",< 100 µg/mL
CC[C@H]1OC(=O)[C@H](C)[C@@H](O[C@H]2C[C@@](C)(OC)[C@@H](O)[C@H](C)O2)[C@H](C)[C@@H](O[C@@H]2O[C@H](C)C[C@H](N(C)C)[C@H]2O)[C@](C)(O)C[C@@H](C)C(=O)[C@H](C)[C@@H](O)[C@]1(C)O [erythromycin],solubility,physchem; water,2000 µg/mL
"CCCCNc1ccc(C(=O)OCCN(C)C)cc1 [hydroiodic acid (HI) salt of tetracaine, tetracaine-H-I]",duration of local anesthesia,surgical wounds,45 h
same,extension of duration of action,human skin,5 -fold
CN(C)[C@@H]1C(=O)C(C(N)=O)=C(O)[C@@]2(O)C(=O)C3=C(O)c4c(O)cccc4[C@@](C)(O)[C@H]3[C@H](O)[C@@H]12 [oxytetracycline],aqueous solubility,[2],1100 µg/mL
CCCC(C)C1(CC)C(=O)NC(=S)NC1=O (stereo not shown) [thiopental],listed adverse reactions,[3],venous thrombosis or phlebitis extending from the site of injection
